{"source": "patent US9527876B2", "about": "“Prodrugs of bicyclic substituted pyrimidine type PDE-5 inhibitors” (Xuanzhu Pharma Co., Ltd., priority 2013, dated 2016)", "key": {"[1]": {"assay": "Solubility in ultrapure water (visual observation)", "type": "physicochemical", "description": "Method for preparing samples of Compounds 4, 4-A, Compounds 9, and 9-B: 2 mg of test sample was taken, gradually added to ultrapure water, treated with ultrasound for 5 min each time until the sample was completely dissolved by visional observation."}, "[2]": {"assay": "Rat pharmacokinetics after intravenous injection (LC-MS/MS of plasma)", "conditions": "for concentration at 0.083 h: 1 mg/kg, Concentration of Compound 1 in rat body", "experimental": "(§1) Chromatographic column: Agilent XDBC18(2.1×50 mm, 5 μm)\n(§2) Rat blood collection: animal was fixed, heated at tail with water-bath 10 min before each time point, about 200 μL of blood was collected from caudal vein, and the collected blood was placed in anticoagulative tube containing heparin sodium. Blood sample was centrifuged under 8000 rpm at 4° C. for 6 min to obtain plasma sample, and the plasma must be prepared within 30 min after blood collection. The plasma was stored in −80° C. refrigerator before test.\n(§3) Experimental Method • 1) Take a sample to be tested from refrigerator (−80° C.), melt in situ at room temperature, then eddy for 5 min; • 2) Precisely move 20 μL of sample into 1.5 mL centrifuge tube; • 3) Add 200 μL of internal standard solution; • 4) Eddy for 3 min, then centrifuge for 5 min (12000 rpm); • 5) Precisely move 50 μL of supernatant and add into 150 μL of water, eddy for 3 min, and load to LC-MS/MS for analysis.\n(§4) Test sample (plasma sample) concentrations were output by using Analyst 1.5.1 of AB Company. […] Mean values, standard deviation and variable coefficient (those directly outputed by Analyst 1.5.1 were not calculated), were calculated by Microsoft Excel. PK parameter was calculated by using software Pharsight Phoenix 6.2.\n(§5) Wherein T1/2 represents half-life period; AUCinf represents area under drug-time curve 0→∞; CL represents clearance rate; Vss represents apparent volume of distribution; Cmax represents peak concentration of the compound in plasma; Tmax represents the time at which the compound reached the peak concentration; F % represents absolute bioavailability."}, "[3]": {"assay": "Rat pharmacokinetics after intragastric administration (LC-MS/MS of plasma)", "type": "in vivo, rats", "conditions": "for F: rats, intragastric, absolute bioavailability", "description": "Instrument and equipment: API4000 LC-MS/MS"}, "[4]": {"assay": "Solubility of Compound Q in buffer solutions of different pH (HPLC)", "type": "physicochemical", "conditions": "aqueous buffer, thermodynamic from solid, 1 mg in 1 mL, read-out: Measured concentration (solubility)", "description": "2. Method for preparing sample of Compound Q, 4 parts of test sample were precisely weighed, each was 1 mg and was separately added to 1 mL of buffer solutions of pH 3, pH 5, pH 7, pH 9, treated with ultrasound for 5 min and filtered through 0.45 μm organic filtration membrane. The filter liquors were used as test sample solutions. 10 μL of each was injected into high performance liquid chromatograph, and peak areas were recorded.\n4.88 mg of test sample was precisely weighed, placed in 10 mL volumetric flask, added to 1 mL of methanol for dissolution, then diluted with methanol to constant volume to obtain a solution containing 0.488 mg of control per 1 mL, which was used as mother liquor A. The mother liquor A was gradually diluted with methanol to obtain control solutions containing 0.0488 mg or 0.00976 mg per 1 mL.\nLinear regression was performed by using control concentration (C) as abscissa, and peak area (Y) as ordinate so as to obtain a linear equation. The concentrations of test sample solutions were obtained by putting the peak areas of test sample solutions into the linear equation.\nThe control linear equation of Compound Q is: Y=24262C, correlation coefficient r=1.0000.\nInstrument and equipment: Agilent 1200 HPLC\nChromatography column: YMC-Pack-Pro C18(150×4.6 mm, 5 μm)\nBuffer solution: 0.02 mol/L ammonium dihydrogen phosphate (added 0.2% triethylamine, and regulated with phosphoric acid to pH=6.0)\nPhase A: acetonitrile-buffer solution=[…], Phase B: acetonitrile-buffer solution=80:20\nMobile phase: Phase A: Phase B=65:35\nDetection wavelength: 254 nm Sample size: 10 μL"}, "[5]": {"assay": "Solubility of Compound 1 in buffer solutions of different pH (visual observation)", "type": "physicochemical", "conditions": "for solubility at 5 min: aqueous buffer, thermodynamic from solid", "description": "1. Method for preparing sample of Compound 1, 6 parts of test sample were precisely weighed, each was 2 mg and was separately added to 40 μL of buffer solutions of pH 4, pH 5, pH 6, pH 7, pH 8, pH 9, respectively. Jolted (ultrasonic treatment for 5 min) and detected by visual observation.\n1.02 g of potassium hydrogen phthalate was weighed, added to 0.05 mL of 0.2 mol/L hydrochloric acid solution and an appropriate amount of water for dissolution, diluted by adding water to 100 mL, mixed homogeneously to obtain the subject solution.\n1.02 g of potassium hydrogen phthalate was weighed, added to 11.3 mL of 0.2 mol/L sodium hydroxide solution and an appropriate amount of water for dissolution, diluted by adding water to 100 mL, mixed homogeneously to obtain the subject solution.\n0.68 g of potassium dihydric phosphate was weighed, added to 2.8 mL of 0.2 mol/L sodium hydroxide solution and an appropriate amount of water for dissolution, diluted by adding water to 100 mL, mixed homogeneously to obtain the subject solution.\n0.68 g of potassium dihydric phosphate was weighed, added to 14.55 mL of 0.2 mol/L sodium hydroxide solution and an appropriate amount of water for dissolution, diluted by adding water to 100 mL, mixed homogeneously to obtain the subject solution.\n0.75 g of potassium chloride and 0.62 g of boric acid were weighed, added to 3.9 mL of 0.2 mol/L sodium hydroxide solution and an appropriate amount of water for dissolution, diluted by adding water to 200 mL, mixed homogeneously to obtain the subject solution.\n0.75 g of potassium chloride and 0.62 g of boric acid were weighed, added to 20.8 mL of 0.2 mol/L sodium hydroxide solution and an appropriate amount of water for dissolution, diluted by adding water to 200 mL, mixed homogeneously to obtain the subject solution."}, "[6]": {"conditions": "in human, background statement; cited from earlier work"}, "[7]": {"conditions": "in vivo, background statement; cited from earlier work"}, "in vivo": {"assay": "in vivo", "conditions": "rat, iv, 2 mg/kg", "experimental": "as §1, §2, §3, §4, §5"}, "[8]": {"conditions": "rat, in vivo, iv, 1 mg/kg", "experimental": "as §1, §2, §3, §4, §5"}, "PDE-5": {"biological_target": "T1, PDE-5 (Homo sapiens, UniProt O76074)", "T1 construct": "PDE-5 source, human platelets; from tissue; host or cells: human platelets", "assay": "Scintillation counter (Topcount) PDE-5 enzyme assay", "type": "biochemical"}}, "note": "Where two headings read alike, the source gives them in different places.", "data": [{"smiles": "COc1ccc(CNc2nc(N3CCC4(CC4)C3)ncc2C(=O)N[C@H]2CC[C@H](OP(=O)([O-])[O-])CC2)cc1Cl.[Na+].[Na+]", "note": "[Compound 4, N-trans-4-(4-((3-chloro-4-methoxybenzyl)amino)-2-(5-azaspiro[2.4]heptan-5-yl)pyrimidine-5-carboxamido)cyclohexyl phosphate disodium salt]", "values": [{"measurement": "Solubility in water relative to original drug Compound 4-A", "setting": "[1]", "result": 2000, "unit": "times"}, {"measurement": "solubility at 5 min", "setting": "[1]; thermodynamic from solid, ultrasound 5 min", "result": "≥ 200000", "unit": "µg/mL"}]}, {"smiles": "COc1ccc(CNc2nc(N3CC4CC4C3)ncc2C(=O)N[C@H]2CC[C@H](O)CC2)cc1C", "note": "(stereo partly drawn) [Compound 9-B, 2-(3-azabicyclo[3.1.0]hexan-3-yl)-N-(trans-4-hydroxycyclohexyl)-4-(4-methoxy-3-methylbenzylamino)pyrimidine-5-carboxamide]", "values": [{"measurement": "Vd", "setting": "[2]; rat, plasma, iv, 2 mg/kg", "result": 4.48, "unit": "L/kg"}, {"measurement": "clearance", "setting": "[2]; rat, plasma, iv, 2 mg/kg", "result": 13, "unit": "mL/min/kg"}, {"measurement": "F", "setting": "[3]; dose 5 mg/kg (Table 5)", "result": 65, "unit": "%"}]}, {"smiles": "COc1ccc(CNc2nc(N3CC4CC4C3)ncc2C(=O)N[C@H]2CC[C@H](O)CC2)cc1Cl", "note": "(stereo partly drawn) [Compound Q, 2-(3-azabicyclo[3.1.0]hexan-3-yl)-4-(3-chloro-4-methoxybenzylamino)-N-(trans-4-hydroxycyclohexyl)pyrimidine-5-carboxamide]", "values": [{"measurement": "solubility at 5 min", "setting": "[4]; buffer solution pH 3", "result": 371, "unit": "µg/mL"}, {"measurement": "solubility at 5 min", "setting": "[4]; buffer solution pH 5", "result": 0.276, "unit": "µg/mL"}, {"measurement": "solubility at 5 min", "setting": "[4]; buffer solution pH 7", "result": 0.124, "unit": "µg/mL"}, {"measurement": "solubility at 5 min", "setting": "[4]; buffer solution pH 9", "result": 0.128, "unit": "µg/mL"}]}, {"smiles": "COc1ccc(CNc2nc(N3CC4CC4C3)ncc2C(=O)N[C@H]2CC[C@H](OP(=O)([O-])[O-])CC2)cc1Cl.[Na+].[Na+]", "note": "(stereo partly drawn) [Compound 1, N-trans-4-(2-(3-azabicyclo[3.1.0]hexan-3-yl)-4-(3-chloro-4-methoxybenzylamino)pyrimidine-5-carboxamido)cyclohexyl phosphate disodium salt]", "values": [{"measurement": "Plasma detection of Compound 1 at all other time points", "setting": "[2]; after IV injection, time points other than 0.083 h, LC-MS/MS", "result": "could not be detected"}, {"measurement": "concentration at 0.083 h", "setting": "[2]; rat, plasma, iv, Mean, IV 1 mg/kg, mean of 3 rats", "result": 165, "unit": "ng/mL"}, {"measurement": "concentration at 0.083 h", "setting": "[2]; rat, plasma, iv, Rat 1, IV 1 mg/kg, Rat 1", "result": 162, "unit": "ng/mL"}, {"measurement": "concentration at 0.083 h", "setting": "[2]; rat, plasma, iv, Rat 2, IV 1 mg/kg, Rat 2", "result": 183, "unit": "ng/mL"}, {"measurement": "concentration at 0.083 h", "setting": "[2]; rat, plasma, iv, Rat 3, IV 1 mg/kg, Rat 3", "result": 151, "unit": "ng/mL"}, {"measurement": "Time of conversion of prodrug Compound 1 into Compound Q", "setting": "[2]; rats, after IV injection", "result": "≤ 0.083", "unit": "h"}, {"measurement": "solubility at 5 min", "setting": "[5]; buffer solution pH 5, 2 mg in 40 μL", "result": "≥ 50000", "unit": "µg/mL"}, {"measurement": "solubility at 5 min", "setting": "[5]; buffer solution pH 6, 2 mg in 40 μL", "result": "≥ 50000", "unit": "µg/mL"}, {"measurement": "solubility at 5 min", "setting": "[5]; buffer solution pH 7, 2 mg in 40 μL", "result": "≥ 50000", "unit": "µg/mL"}, {"measurement": "solubility at 5 min", "setting": "[5]; buffer solution pH 8, 2 mg in 40 μL", "result": "≥ 50000", "unit": "µg/mL"}, {"measurement": "solubility at 5 min", "setting": "[5]; buffer solution pH 9, 2 mg in 40 μL", "result": "≥ 50000", "unit": "µg/mL"}, {"measurement": "Solubility, in words", "setting": "[5]; buffer solution pH 4, compared with pH 5 to 9", "result": "decreased"}, {"measurement": "Phenomenon on dissolution", "setting": "[5]; buffer solution pH 4, 2 mg in 40 μL", "result": "precipitated after about 5 min"}, {"measurement": "Plasma detection of Compound 1 at each time point", "setting": "[3]; after intragastric administration (PO), LC-MS/MS", "result": "not detected"}]}, {"smiles": "CN1CC(=O)N2[C@H](c3ccc4c(c3)OCO4)c3[nH]c4ccccc4c3C[C@@H]2C1=O", "note": "[Tadalafil]", "values": [{"measurement": "half-life", "setting": "[6]", "result": "about 16 h"}]}, {"smiles": "COc1ccc(CN=c2[nH]c(N3CCC[C@H]3CO)ncc2C(=O)NCc2ncccn2)cc1Cl", "note": "[Avanafil]", "values": [{"measurement": "half-life", "setting": "[7]", "result": "about 1.2 h"}, {"measurement": "Vd", "setting": "in vivo", "result": 3.56, "unit": "L/kg"}, {"measurement": "clearance", "setting": "in vivo", "result": 88.5, "unit": "mL/min/kg"}, {"measurement": "AUCinf", "setting": "[8]", "result": 382, "unit": "ng·h/mL"}, {"measurement": "T1/2", "setting": "[8]", "result": 30, "unit": "min"}, {"measurement": "F", "setting": "[3]; dose 2 mg/kg (Table 5)", "result": 4.5, "unit": "%"}, {"measurement": "IC50", "setting": "PDE-5", "result": 3.1, "unit": "nM"}]}]}
